{"source": "patent US12692461B2", "about": "“Composite form of tetraacetylenediamine” (ONE1STAR SOLUTIONS LIMITED, priority 2020, dated 2026)", "key": {"[1]": {"conditions": "cited from earlier work"}, "[2]": {"test": "Example 3: performance and water miscibility in presence of sodium percarbonate, weight of remaining material", "experimental": "The experiment was carried out to check the performance and water miscibility of TAED in presence of sodium percarbonate. 1 gram of TAED with 2.5 gram of sodium percarbonate was added 1 litre water and stirred at 500 rpm using overhead stirrer. In Experiment set up the amount of water used for the study was 1 litre."}, "[3]": {"test": "Example 4: performance and water miscibility in presence of sodium percarbonate, undissolved TAED at T=0 and T=6 months", "format": "physicochemical", "method": "The TAED:Sodium percarbonate ratio used for the study was 1:2.5 w/w. […] This 100 mL solution was either used as it was or it was further diluted to with 900 mL water to make a 1 L sample."}}, "note": "Where two headings read alike, the source gives them in different places.", "data": [{"smiles": "CC(=O)N(CCN(C(C)=O)C(C)=O)C(C)=O", "note": "[TAED (Commercially available), Tetraacetylethylenediamine]", "values": [{"measurement": "solubility", "setting": "[1]; 20° C.", "value": 200, "unit": "µg/mL"}, {"measurement": "solubility", "setting": "[1]", "value": "around 200 mg/L"}, {"measurement": "amount remained after 5 min", "setting": "[2]; 100 ml water", "value": 800, "unit": "mg"}, {"measurement": "amount remained after 5 min", "setting": "[2]; 250 ml water", "value": 750, "unit": "mg"}, {"measurement": "amount remained after 5 min", "setting": "[2]; 500 ml water", "value": 690, "unit": "mg"}, {"measurement": "Undissolved TAED", "setting": "[3]; 1 g TAED, 1 L, 1 min, T = 6 months (40° C., 75% relative humidity)", "value": 90, "unit": "mg"}, {"measurement": "Undissolved TAED", "setting": "[3]; 1 g TAED, 1 L, 4 min, T = 0", "value": 60, "unit": "mg"}, {"measurement": "Undissolved TAED", "setting": "[3]; 1 g TAED, 1 L, 4 min, T = 6 months (40° C., 75% relative humidity)", "value": 60, "unit": "mg"}, {"measurement": "Undissolved TAED", "setting": "[3]; 1 g TAED, 100 mL diluted to 1 L, 1 min, T = 0", "value": 90, "unit": "mg"}, {"measurement": "Undissolved TAED", "setting": "[3]; 1 g TAED, 100 mL water, stirring 1 min, T = 6 months (40° C., 75% relative humidity)", "value": 150, "unit": "mg"}, {"measurement": "Undissolved TAED", "setting": "[3]; 1 g TAED, 100 mL water, stirring 4 min, T = 0", "value": 100, "unit": "mg"}, {"measurement": "Undissolved TAED", "setting": "[3]; 1 g TAED, 100 mL water, stirring 4 min, T = 6 months (40° C., 75% relative humidity)", "value": 100, "unit": "mg"}, {"measurement": "Undissolved TAED", "setting": "[3]; 1 g TAED, sodium percarbonate 1:2.5 w/w, 100 mL water, stirring 1 min, T = 0", "value": 150, "unit": "mg"}, {"measurement": "Undissolved TAED", "setting": "[3]; 3 gram TAED, 1 litre, stirring 1 min, T = 0", "value": 1.8, "unit": "gram"}, {"measurement": "Undissolved TAED", "setting": "[3]; 3 gram TAED, 1 litre, stirring 1 min, T = 6 month", "value": 1.8, "unit": "gram"}, {"measurement": "Undissolved TAED", "setting": "[3]; 3 gram TAED, 1 litre, stirring 4 min, T = 0", "value": 1.2, "unit": "gram"}, {"measurement": "Undissolved TAED", "setting": "[3]; 3 gram TAED, 1 litre, stirring 4 min, T = 6 month", "value": 1.2, "unit": "gram"}, {"measurement": "Undissolved TAED", "setting": "[3]; 3 gram TAED, 100 ml water, stirring 1 min, T = 0", "value": 2, "unit": "gram"}, {"measurement": "Undissolved TAED", "setting": "[3]; 3 gram TAED, 100 ml water, stirring 1 min, T = 6 month", "value": 2, "unit": "gram"}, {"measurement": "Undissolved TAED", "setting": "[3]; 3 gram TAED, 100 ml water, stirring 4 min, T = 0", "value": 1.8, "unit": "gram"}, {"measurement": "Undissolved TAED", "setting": "[3]; 3 gram TAED, 100 ml water, stirring 4 min, T = 6 month", "value": 1.8, "unit": "gram"}]}]}
